Test results from ChEMBL document CHEMBL3400005, “Thermodynamic equilibrium solubility measurements in simulated fluids by 96-well plate method in early drug discovery” (Bioorg Med Chem Lett, 2015).
Converted amounts (≈) assume the structure as drawn.

How the values were obtained:
physchem [1] = conditions: pH 7.4
physchem [2] = conditions: PBS, pH 7.4
physchem [3] = conditions: pH 6.8
physchem [4] = conditions: water
physchem [5] = conditions: water; remark: listed apart in the source
physchem [6] = conditions: pH 1.2
physchem [7] = conditions: pH 6.8; remark: listed apart in the source
physchem [8] = conditions: pH 1.2; remark: listed apart in the source
physchem [9] = experiment: physchem

Row | SMILES | solubility thermodynamic at 4 h (physchem [1]; PBS) [µM] | solubility thermodynamic at 24 h (physchem [2]) [µM] | solubility thermodynamic at 24 h (physchem [3]; simulated intestinal fluid) [µM] | solubility thermodynamic at 4 h (physchem [4]) [µM] | solubility thermodynamic at 24 h (physchem [5]) [µM] | solubility thermodynamic at 4 h (physchem [6]; simulated gastric fluid) [µM] | solubility thermodynamic at 4 h (physchem [7]; simulated intestinal fluid) [µM] | solubility thermodynamic at 24 h (physchem [8]; simulated gastric fluid) [µM] | solubility thermodynamic (physchem [9]) [µM] | solubility thermodynamic at 4 h (physchem [1]; buffer) [µM] | solubility thermodynamic at 24 h (physchem [3]; simulated gi fluid) [µM] | solubility thermodynamic at 4 h (physchem [6]; simulated gi fluid) [µM] | solubility thermodynamic at 4 h (physchem [7]; simulated gi fluid) [µM] | solubility thermodynamic at 24 h (physchem [8]; simulated gi fluid) [µM]
1 | CCCSc1ccc2nc(NC(=O)OC)[nH]c2c1 [ALBENDAZOLE] | 1.91 (≈ 0.506 µg/mL) | 12.9 (≈ 3.42 µg/mL) | 0.759 (≈ 0.201 µg/mL) | 0.38 (≈ 0.101 µg/mL) | 0.049 (≈ 0.013 µg/mL) | 151 (≈ 40.2 µg/mL) | 1.91 (≈ 0.506 µg/mL) | 204 (≈ 54.2 µg/mL) | 0.49 (≈ 0.13 µg/mL) |  |  |  |  | 
2 | COc1ccc2[nH]c([S+]([O-])Cc3ncc(C)c(OC)c3C)nc2c1 (stereo not given) [OMEPRAZOLE] | 229 (≈ 79.1 µg/mL) |  |  | 229 (≈ 79.1 µg/mL) |  | 437 (≈ 151 µg/mL) | 57.5 (≈ 19.9 µg/mL) |  | 145 (≈ 49.9 µg/mL) |  |  |  |  | 
3 | CCS(=O)(=O)CCn1c([N+](=O)[O-])cnc1C [TINIDAZOLE] | 603 (≈ 149 µg/mL) |  |  | 324 (≈ 80 µg/mL) |  | 162 (≈ 40.1 µg/mL) | 324 (≈ 80 µg/mL) |  |  |  |  |  |  | 
4 | CC[C@H]1OC(=O)[C@H](C)[C@@H](O[C@H]2C[C@@](C)(OC)[C@@H](O)[C@H](C)O2)[C@H](C)[C@@H](O[C@@H]2O[C@H](C)C[C@H](N(C)C)[C@H]2O)[C@](C)(OC)C[C@@H](C)C(=O)[C@H](C)[C@@H](O)[C@]1(C)O [CLARITHROMYCIN] | 0.676 (≈ 0.506 µg/mL) |  |  | 0.676 (≈ 0.506 µg/mL) |  | 0.676 (≈ 0.506 µg/mL) | 1.35 (≈ 1.01 µg/mL) |  | 0.0447 (≈ 0.0334 µg/mL) |  |  |  |  | 
5 | CCC(=O)O[C@]1(C(=O)SCF)[C@H](C)C[C@H]2[C@@H]3C[C@H](F)C4=CC(=O)C=C[C@]4(C)[C@@]3(F)[C@@H](O)C[C@@]21C [FLUTICASONE PROPIONATE] | 0.2 (≈ 0.0999 µg/mL) | 0.01 (≈ 0.00501 µg/mL) | 0.407 (≈ 0.204 µg/mL) | 0.2 (≈ 0.0999 µg/mL) | 0.0195 (≈ 0.00976 µg/mL) | 1 (≈ 0.501 µg/mL) | 1 (≈ 0.501 µg/mL) | 0.2 (≈ 0.0999 µg/mL) | 0.102 (≈ 0.0512 µg/mL) |  |  |  |  | 
6 | CC(=O)N[C@@H](CS)C(=O)O [ACETYLCYSTEINE] | 12.3 (≈ 2.01 µg/mL) |  |  | 24.5 (≈ 4.01 µg/mL) |  | 6.17 (≈ 1.01 µg/mL) | 6.17 (≈ 1.01 µg/mL) |  |  |  |  |  |  | 
7 | C[C@@H]1[C@H](O)[C@@H](C)/C=C/C=C/C=C/C=C/C=C/C=C/C=C/[C@H](O[C@@H]2O[C@H](C)[C@@H](O)[C@H](N)[C@@H]2O)C[C@@H]2O[C@](O)(C[C@@H](O)C[C@@H](O)[C@H](O)CC[C@@H](O)C[C@@H](O)CC(=O)O[C@H]1C)C[C@H](O)[C@H]2C(=O)O [AMPHOTERICIN B] | 21.9 (≈ 20.2 µg/mL) | 26.3 (≈ 24.3 µg/mL) | 3.8 (≈ 3.51 µg/mL) | 21.9 (≈ 20.2 µg/mL) | 22.9 (≈ 21.2 µg/mL) | 13.5 (≈ 12.5 µg/mL) | 4.37 (≈ 4.03 µg/mL) | 11.2 (≈ 10.4 µg/mL) | 81.3 (≈ 75.1 µg/mL) |  |  |  |  | 

Next, values leading:

Row | solubility thermodynamic at 4 h (physchem [1]; PBS) [µM] | solubility thermodynamic at 24 h (physchem [2]) [µM] | solubility thermodynamic at 24 h (physchem [3]; simulated intestinal fluid) [µM] | solubility thermodynamic at 4 h (physchem [4]) [µM] | solubility thermodynamic at 24 h (physchem [5]) [µM] | solubility thermodynamic at 4 h (physchem [6]; simulated gastric fluid) [µM] | solubility thermodynamic at 4 h (physchem [7]; simulated intestinal fluid) [µM] | solubility thermodynamic at 24 h (physchem [8]; simulated gastric fluid) [µM] | solubility thermodynamic (physchem [9]) [µM] | solubility thermodynamic at 4 h (physchem [1]; buffer) [µM] | solubility thermodynamic at 24 h (physchem [3]; simulated gi fluid) [µM] | solubility thermodynamic at 4 h (physchem [6]; simulated gi fluid) [µM] | solubility thermodynamic at 4 h (physchem [7]; simulated gi fluid) [µM] | solubility thermodynamic at 24 h (physchem [8]; simulated gi fluid) [µM] | SMILES
8 | 0.851 (≈ 0.495 µg/mL) |  |  | 0.851 (≈ 0.495 µg/mL) |  | 0.851 (≈ 0.495 µg/mL) | 0.851 (≈ 0.495 µg/mL) |  |  |  |  |  |  |  | [H]/N=C(/N)N[C@H]1[C@H](O)[C@@H](O)[C@H](O[C@@H]2O[C@@H](C)[C@](O)(C=O)[C@H]2O[C@@H]2O[C@@H](CO)[C@H](O)[C@@H](O)[C@@H]2NC)[C@@H](N/C(N)=N\[H])[C@@H]1O [STREPTOMYCIN]
9 | 56.2 (≈ 14.3 µg/mL) |  |  | 31.6 (≈ 8.04 µg/mL) |  | 79.4 (≈ 20.2 µg/mL) | 0.389 (≈ 0.0989 µg/mL) |  |  |  |  |  |  |  | CN1C(=N)N(C)/C(=C/c2c[nH]c3ccccc23)C1=O [APLYSINOPSIN]
10 | 0.339 (≈ 0.0994 µg/mL) | 0.105 (≈ 0.0307 µg/mL) | 0.692 (≈ 0.203 µg/mL) | 0.339 (≈ 0.0994 µg/mL) | 0.148 (≈ 0.0434 µg/mL) | 1.7 (≈ 0.498 µg/mL) | 1.7 (≈ 0.498 µg/mL) | 0.178 (≈ 0.0522 µg/mL) |  |  |  |  |  |  | CC(C)(C#N)c1cc(Cn2cncn2)cc(C(C)(C)C#N)c1 [ANASTROZOLE]
11 | 28.2 (≈ 8.04 µg/mL) |  |  | 70.8 (≈ 20.2 µg/mL) |  | 43.7 (≈ 12.5 µg/mL) | 70.8 (≈ 20.2 µg/mL) |  | 14.1 (≈ 4.03 µg/mL) |  |  |  |  |  | O=C(/C=C/C=C/c1ccc2c(c1)OCO2)N1CCCCC1 [PIPERINE]
12 | 1.7 (≈ 0.5 µg/mL) |  |  | 1.7 (≈ 0.5 µg/mL) |  | 1.7 (≈ 0.5 µg/mL) | 1.7 (≈ 0.5 µg/mL) |  | 1.02 (≈ 0.301 µg/mL) |  |  |  |  |  | CCCCCCCCCCCC1=C(O)C(=O)C=C(O)C1=O [EMBELIN]
13 |  |  |  |  |  |  |  |  |  | 5010 (≈ 903 µg/mL) | 3.72 (≈ 0.669 µg/mL) | 3310 (≈ 597 µg/mL) | 2.75 (≈ 0.496 µg/mL) | 1450 (≈ 260 µg/mL) | CC(=O)Oc1ccccc1C(=O)O [ASPIRIN]
14 | 2.45 |  |  | 5.37 |  | 0.617 | 1.23 |  | 0.871 |  |  |  |  |  | CC(=O)O[C@@]12CO[C@@H]1C[C@H](O)[C@@]1(C)C(=O)[C@H](O)C3=C(C)[C@@H](OC(=O)[C@H](O)[C@@H](NC(=O)OC(C)(C)C)c4ccccc4)C[C@@](O)([C@@H](OC(=O)c4ccccc4)[C@H]21)C3(C)C.O.O.O [DOCETAXEL]
15 | 11.5 (≈ 3.96 µg/mL) |  |  | 10 (≈ 3.45 µg/mL) |  | 5.75 (≈ 1.98 µg/mL) | 0.288 (≈ 0.0995 µg/mL) |  |  |  |  |  |  |  | Clc1ccccc1C(c1ccccc1)(c1ccccc1)n1ccnc1 [CLOTRIMAZOLE]
